Where a name gives a salt, the structure may show the parent alone.
System: wrinkles of the outer corners of the eyes
Experiment: Test of wrinkle improvement effect (skin replica shadow image analysis after 8 weeks of application)
Assay type: in vivo, women
Settings: for Wrinkle improvement Improvement rate (%): applied to outer corners of the eyes twice a day for 8 weeks; for Wrinkle improvement Evaluation: twice a day for 8 weeks, class of the improvement rate
Method: The cosmetics (Examples 1-7, Comparative Example, and Reference Examples) according to Table 1 were prepared respectively in a conventional manner. With regard to each of the prepared cosmetics, the wrinkle improvement effect was evaluated by the following method. In other words, 45 women (40 to 60 years old) who were concerned about wrinkles of the outer corners of the eyes were divided into 9 groups of 5 persons. To each group, any one of the cosmetics of Examples 1 to 7, Comparative Example, and Reference Examples was handed over, which was applied by them to the outer corners of the eyes twice a day in the morning and evening continuously for 8 weeks. Before and after the test, an impression of the skin surface profile was taken in a conventional manner to produce the respective replicas. As the base material for the replica, that for a white replica not transmitting light was used. […] The distribution of brightness in the shadow image was determined, and the brightness equal to or higher than the median value of the brightness was transformed to the maximum brightness, and the brightness below the median value was transformed to the brightness 0 so that binarization is performed according to the borderline of the median value of the brightness. Then the area rate of the shadow portion (portion with the brightness 0) was measured and the wrinkle improvement rate was calculated based on the following expression. Wrinkle improvement rate (%)=(Area rate of shadow portion before test−Area rate of shadow portion after test)/(Area rate of shadow portion before test)×100

[1] = cosmetic of Table 1 with 0.01% by mass compound (Examples 3 and 5), average of group of 5 women
[2] = cosmetic of Table 1 with 0.01% by mass compound (Examples 3 and 5)
[3] = cosmetic of Table 1 with 1% by mass compound, average of group of 5 women (40 to 60 years old)
[4] = cosmetic of Table 1 with 1% by mass compound

With `NCC1CCC(C(=O)c2ccc(CCC(=O)O)cc2)CC1` (centres unmarked) [Compound 1, 3-[p-(4-aminomethylcyclohexylcarbonyl)phenyl]propionic acid] the “Wrinkle improvement Improvement rate (%)” value [1] was 6.3%, the “Wrinkle improvement Evaluation” value [2] was “A (5% or more and less than 10%)” and the “Wrinkle improvement Improvement rate (%)” value [3] was 12%. For the same compound, the “Wrinkle improvement Evaluation” value [4] was “AA (The improvement rate is 10% or more)”.

For `CCCCCCOC(=O)CCc1ccc(C(=O)C2CCC(CN)CC2)cc1` (centres unmarked) [Compound 2, hexyl 3-[p-(4-aminomethylcyclohexylcarbonyl)phenyl]propionate], the “Wrinkle improvement Improvement rate (%)” value [3] was 8.2% and the “Wrinkle improvement Evaluation” value [4] was “A (5% or more and less than 10%)”.

`NCC1CCC(C(=O)c2ccc(CCCO)cc2)CC1` (centres unmarked) [Compound 3, 3-[p-(4-aminomethylcyclohexylcarbonyl)phenyl]propanol] was tested, and the “Wrinkle improvement Improvement rate (%)” value [1] was 5.6%, the “Wrinkle improvement Evaluation” value [2] was “A (5% or more and less than 10%)” and the “Wrinkle improvement Improvement rate (%)” value [3] was 9.3%. The “Wrinkle improvement Evaluation” value [4] was “A (5% or more and less than 10%)”.

`CCCCCC(=O)OCCCc1ccc(C(=O)C2CCC(CN)CC2)cc1` (centres unmarked) [Compound 4, 3-[p-(4-aminomethylcyclohexylcarbonyl)phenyl]propyl hexanoate] was tested, and the “Wrinkle improvement Improvement rate (%)” value [3] was 8.3% and the “Wrinkle improvement Evaluation” value [4] was “A (5% or more and less than 10%)”.

For `CCCCCC(=O)OCC(C)Cc1ccc(C(=O)C2CCC(CN)CC2)cc1` (centres unmarked) [Compound 5, 2-methyl-3-[p-(4-aminomethylcyclohexylcarbonyl)phenyl]propyl hexanoate], the “Wrinkle improvement Improvement rate (%)” value [3] was 6.5% and the “Wrinkle improvement Evaluation” value [4] was “A (5% or more and less than 10%)”.

For `NCC1CCC(C(=O)c2ccc(CCC(=O)O)cc2)CC1` (centres unmarked) [Hydrochloride salt of Compound 1, 3-[p-(4-aminomethylcyclohexylcarbonyl)phenyl]propionic acid], the “Wrinkle improvement Improvement rate (%)” value [3] was 12.2% and the “Wrinkle improvement Evaluation” value [4] was “AA (The improvement rate is 10% or more)”.

For `CNC(=O)[C@H]1CC[C@H](CN)CC1.Cl` [Tranexamic acid methylamide hydrochloride, reference compound], the “Wrinkle improvement Improvement rate (%)” value [3] was 3.6% and the “Wrinkle improvement Evaluation” value [4] was “B (less than 5%)”.

In the case of `NC[C@H]1CC[C@H](C(=O)O)CC1` [Tranexamic acid, reference compound], the “Wrinkle improvement Improvement rate (%)” value [3] is reported as 3.2% and the “Wrinkle improvement Evaluation” value [4] is reported as “B (less than 5%)”.
